Reference: US20250127874A1, “CMV EPITOPES” (The Council of the Queensland Institute of Medical Research, priority 2016, published 2025)

System: CD8+ T cells
Assay: PBMC from HSCT recipients stimulated with HLA-matched peptide epitopes, cultured two weeks with IL-2, IFN-γ production by CD8+ T cells on recall
Source text: To assess the impact of epitope variation and co-infection on IE-1 specific T cell immunity, PBMC samples from HSCT recipients showing evidence of viral reactivation were stimulated with all potentially HLA-matched variant peptide epitopes then cultured in vitro for two weeks in the presence of IL-2. PBMC from nine HSCT recipients showing immune reconstitution with no evidence of CMV reactivation were also stimulated with HLA-matched variant peptide epitopes (Table 2). As a control, PBMC were stimulated with at least two conserved HLA matched epitopes.

Sequence | T cell response against epitope (HLA B44-positive HSCT recipients with reactivation (7)) | T cell response against epitope (recipient 17 (HLA-B8), longitudinal analysis during and after viral reactivation)
EDAIAAYTL (Cytomegalovirus) | failed to induce a significant T cell response in any recipient | 
VTEHDTTLY |  | absence of a detectable response
